Article PMC7605328 (ACS Medicinal Chemistry Letters, 2020)

Assays:
COVID-19 = conditions: cited from earlier work
SARS-CoV-2 M^pro = SARS-CoV-2 M^pro (Severe acute respiratory syndrome coronavirus 2, UniProt P0DTD1); assay: FRET-based kinetic assay of M^pro inhibition; type: biochemical

Structure (SMILES): Cc1cccc(C)c1OCC(=O)N[C@@H](Cc1ccccc1)[C@@H](O)C[C@H](Cc1ccccc1)NC(=O)[C@H](C(C)C)N1CCCNC1=O [lopinavir]
- benefits against COVID-19 in clinical trials (COVID-19; clinical trials, no reference given): neither lopinavir nor the lopinavir/ritonavir combination has thus far shown any significant benefits

Structure (SMILES): Cc1c(O)cccc1C(=O)N[C@@H](CSc1ccccc1)[C@H](O)CN1C[C@H]2CCCC[C@H]2C[C@H]1C(=O)NC(C)(C)C [nelfinavir]
- IC50 (SARS-CoV-2 M^pro): 250 to 600 µM

Structure (SMILES): CCC(CC)COC(=O)[C@H](C)N[P@](=O)(OC[C@H]1O[C@@](C#N)(c2ccc3c(N)ncnn23)[C@H](O)[C@@H]1O)Oc1ccccc1 [remdesivir]
- clinical benefit (COVID-19; adult patients hospitalized for severe COVID-19): no statistically significant clinical benefits
- time to clinical improvement (COVID-19; in comparison to the placebo-control group): faster time to clinical improvement
